Measured values: patent publication US6455528B1, “Piperazine compounds and medicinal use thereof” (Mitsubishi Pharma Corporation, priority 1997, dated 2002)

Assays:
TNF-α production = assay: Effect on TNF-α production in mice (in vivo), LPS-induced; settings: serum TNF-α 90 min after LPS 500 μg/kg i.p.; test compound orally 30 min before LPS; ratio relative to test compound non-administration group
Procedure: (§1) Since the TNF-α concentration in serum reaches a peak at 90 min after LPS administration, the TNF-α concentration in the serum at this point was measured using FACTOR TEST mTNF-α (manufactured by Genzyme) and the IL-10 concentration at the same point of time was also measured using Murine IL-10 ELISA Kit (manufactured by Endogen). […] The effect of the test compound on the TNF-α production and IL-10 production was calculated by the following formula as the ratio relative to the test compound non-administration group.

IL-10 production = assay: Effect on IL-10 production in mice (in vivo), LPS-induced; settings: serum IL-10 90 min after LPS 500 μg/kg i.p.; test compound orally 30 min before LPS; ratio relative to test compound non-administration group
Procedure: as §1

Row | melting point [°C] | Structure (SMILES) | TNF-α production (%) (TNF-α production) | IL-10 production (%) (IL-10 production)
1 | 101 to 103 | CC(=O)NC(C)c1ccc(CN2CCN(c3ccc(F)cc3)CC2)cc1 (stereo not drawn) [Example 48, N-(1-(4-((4-(4-Fluorophenyl)piperazin-1-yl)methyl)phenyl)ethyl)acetamide] | 12 | 888
2 | 104.5 to 106 | CC(=O)NC(C)(C)c1ccc(CN2CCN(c3ccc(F)cc3)CC2)cc1 [Example 51, N-(1-Methyl-1-(4-((4-(4-fluorophenyl)-piperazin-1-yl)methyl)phenyl)ethyl)acetamide] | 16 | 533
3 | 120 to 121 | CC(=O)NCc1ccc(CN2CCN(c3ncccn3)CC2)cc1 [Example 72, N-(4-((4-(Pyrimidin-2-yl)piperazin-1-yl)methyl)phenylmethyl)acetamide] | 20 | 510
4 | 100 to 101 | CC(=O)NCc1ccc(CN2CCN(c3ccccn3)CC2)cc1 [Example 82, N-(4-((4-(Pyridin-2-yl)piperazin-1-yl)methyl)phenylmethyl)acetamide] | 11 | 742
